{
  "source": "ChEMBL document CHEMBL4811256",
  "about": "“Synthesis and evaluation of multi-target-directed ligands with BACE-1 inhibitory and Nrf2 agonist activities as potential agents against Alzheimer's disease” (Eur J Med Chem, 2021)",
  "key": {"[1]": {"experiment": "Glutathione peroxidase-like activity in pH 7.5 potassium phosphate buffer assessed as catalytic reduction of H2O2 by measuring initial velocity at 25 degreeC using GSH in presence of NADPH by UV absorbance analysis (reference value: 30.41+/- 2.06 microM/min)", "assay_type": "functional"}, "PC-12 [2]": {"test_system": "PC-12", "experiment": "Activation of Keap1-Nrf2-ARE pathway in rat PC-12 assessed as accumulation of Nrf2 in cytosol at 10 uM measured up to 24 hrs by Western blot analysis", "assay_type": "subcellular", "settings": "filed as activator, time hrs <=24"}, "PC-12 [3]": {"test_system": "PC-12", "experiment": "Cytoprotective activity against H2O2-induced cell damage in rat PC-12 cells transfected with Nrf2 siRNA at 10 uM", "assay_type": "functional, cell-based"}, "PC-12 [4]": {"test_system": "PC-12", "experiment": "Cytoprotective activity against 6-OHDA-induced oxidative stress in rat PC-12 cells assessed as decrease in cell death at 10 uM pretreated for 12 hrs followed by 6-OHDA challenge by MTT assay", "assay_type": "functional, cell-based"}, "[5]": {"molecular_target": "T1, Nuclear factor erythroid 2-related factor 2 (Mus musculus) (UniProt Q60795)", "T1 sequence (whole entry)": "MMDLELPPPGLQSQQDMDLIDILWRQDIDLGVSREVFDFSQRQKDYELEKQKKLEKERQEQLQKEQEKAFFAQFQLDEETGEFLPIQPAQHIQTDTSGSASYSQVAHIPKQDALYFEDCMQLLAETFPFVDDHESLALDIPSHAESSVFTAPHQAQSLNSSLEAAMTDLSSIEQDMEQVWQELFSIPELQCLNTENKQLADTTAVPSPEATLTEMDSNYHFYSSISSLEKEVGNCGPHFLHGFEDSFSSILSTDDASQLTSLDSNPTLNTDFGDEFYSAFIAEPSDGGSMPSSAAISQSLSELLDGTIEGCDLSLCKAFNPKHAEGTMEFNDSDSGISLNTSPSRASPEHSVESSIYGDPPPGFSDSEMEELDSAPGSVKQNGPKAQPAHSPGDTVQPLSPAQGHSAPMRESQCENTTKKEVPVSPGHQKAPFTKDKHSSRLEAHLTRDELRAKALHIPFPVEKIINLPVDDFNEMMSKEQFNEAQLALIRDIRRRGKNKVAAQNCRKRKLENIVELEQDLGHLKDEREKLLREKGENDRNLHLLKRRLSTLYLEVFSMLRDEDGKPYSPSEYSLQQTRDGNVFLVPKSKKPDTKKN", "experiment": "Activation of Nrf2 in mouse BV-2 cells assessed as decrease in LPS-induced NO production pretreated with compound for 2 hrs followed by LPS stimulation and further incubated for 18 hrs by Griess reagent based assay", "assay_type": "cell-based", "settings": "filed as activator, dose 10.0 µM, time 20.0 hrs"}, "[6]": {"molecular_target": "T1, Nuclear factor erythroid 2-related factor 2 (Mus musculus)", "experiment": "Activation of Nrf2 in mouse BV-2 cells assessed as decrease in LPS-induced IL-6 production pretreated with compound for 2 hrs followed by LPS stimulation and further incubated for 18 hrs […]", "assay_type": "cell-based", "settings": "filed as activator, dose 10.0 µM, time 20.0 hrs"}, "PC-12 [7]": {"test_system": "PC-12", "experiment": "Protection against 6-OHDA-induced apoptosis in rat PC-12 cells assessed as necrotic cells at 5 uM pretreated for 12 hrs followed by 6-OHDA challenge by annexin V FITC/propidium iodide staining based flow cytometry (reference value: 3.7 %)", "assay_type": "functional"}, "[8]": {"molecular_target": "T1, Nuclear factor erythroid 2-related factor 2 (Mus musculus)", "experiment": "Activation of Nrf2 in mouse BV-2 cells assessed as upregulation of NQO1 protein expression after 24 hrs by Western blot analysis", "assay_type": "cell-based", "settings": "filed as activator, dose 2.5-10 µM"}, "PC-12 [9]": {"test_system": "PC-12", "experiment": "Activation of Keap1-Nrf2-ARE pathway in rat PC-12 assessed as upregulation of GCLC protein expression measured after 12 hrs by Western blot analysis", "settings": "filed as activator, dose 2.5-10 µM"}, "PC-12 [10]": {"test_system": "PC-12", "experiment": "Protection against H2O2-induced apoptosis in rat PC-12 cells assessed as necrotic cells at 10 uM pretreated for 12 hrs followed by H2O2 challenge by annexin V FITC/propidium iodide staining based flow cytometry (reference value: 3.7 %)", "assay_type": "functional"}, "PC-12 [11]": {"test_system": "PC-12", "experiment": "Activation of Keap1-Nrf2-ARE pathway in rat PC-12 assessed as upregulation of HO-1 protein expression measured after 12 hrs by Western blot analysis", "settings": "filed as activator, dose 2.5-10 µM"}, "PC-12 [12]": {"test_system": "PC-12", "experiment": "Activation of Keap1-Nrf2-ARE pathway in rat PC-12 assessed as upregulation of GCLM protein expression measured after 12 hrs by Western blot analysis", "settings": "filed as activator, dose 2.5-10 µM"}, "PC-12 [13]": {"test_system": "PC-12", "experiment": "Activation of Keap1-Nrf2-ARE pathway in rat PC-12 assessed as induction of accumulation of Nrf2 in nucleus at 10 uM measured after 3 hrs by Western blot analysis", "settings": "filed as activator"}, "Beta-secretase 1": {"molecular_target": "Beta-secretase 1 (Homo sapiens, UniProt P56817)", "sequence (P56817 whole entry)": "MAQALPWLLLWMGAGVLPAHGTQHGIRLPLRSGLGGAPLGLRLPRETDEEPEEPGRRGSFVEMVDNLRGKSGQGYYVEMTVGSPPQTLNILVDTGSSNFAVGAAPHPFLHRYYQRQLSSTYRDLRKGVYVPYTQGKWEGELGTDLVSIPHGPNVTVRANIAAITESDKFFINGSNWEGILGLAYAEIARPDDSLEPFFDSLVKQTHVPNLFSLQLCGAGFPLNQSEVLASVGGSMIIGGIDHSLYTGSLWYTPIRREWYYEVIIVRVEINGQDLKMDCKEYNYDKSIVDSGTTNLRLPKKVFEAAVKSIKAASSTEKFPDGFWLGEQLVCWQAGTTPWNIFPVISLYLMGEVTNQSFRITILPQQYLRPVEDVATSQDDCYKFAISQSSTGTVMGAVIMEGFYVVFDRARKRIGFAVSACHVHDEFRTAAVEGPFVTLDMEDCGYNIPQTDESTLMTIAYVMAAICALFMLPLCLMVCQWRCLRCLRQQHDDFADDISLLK", "experiment": "Inhibition of BACE-1 (unknown origin) using Mca-Ser-Glu-Val-Asn-Leu-Asp-Ala-Glu-Phe-Lys-Dnp-OH as substrate preincubated for 30 mins followed by substrate addition and measured after 1 hr by FRET assay"}, "PC-12 [14]": {"test_system": "PC-12", "experiment": "Protection against 6-OHDA-induced apoptosis in rat PC-12 cells assessed as early apoptotic cells at 2.5 uM pretreated for 12 hrs followed by 6-OHDA challenge by annexin V FITC/propidium iodide staining based flow cytometry (reference value: 2.4 %)", "assay_type": "functional"}, "PC-12 [15]": {"test_system": "PC-12", "experiment": "Protection against H2O2-induced apoptosis in rat PC-12 cells assessed as viable cells at 2.5 uM pretreated for 12 hrs followed by H2O2 challenge by annexin V FITC/propidium iodide staining based flow cytometry (reference value: 73.3 %)", "assay_type": "functional", "settings": "read-out: Activity"}, "in vitro": {"experiment": "in vitro", "settings": "PAMPA"}, "[16]": {"molecular_target": "T1, Nuclear factor erythroid 2-related factor 2 (Mus musculus)", "experiment": "Activation of Nrf2 in mouse BV-2 cells assessed as upregulation of GCLC protein expression after 24 hrs by Western blot analysis", "assay_type": "cell-based", "settings": "filed as activator, dose 2.5-10 µM"}, "PC-12 [17]": {"test_system": "PC-12", "experiment": "Protection against 6-OHDA-induced apoptosis in rat PC-12 cells assessed as late apoptotic cells at 10 uM pretreated for 12 hrs followed by 6-OHDA challenge by annexin V FITC/propidium iodide staining based flow cytometry (reference value: 17.3 %)", "assay_type": "functional"}, "PC-12 [18]": {"test_system": "PC-12", "experiment": "Protection against 6-OHDA-induced ROS accumulation in rat PC-12 cells assessed as intracellular ROS level by measuring mean fluorescence intensity pretreated for 12 hrs followed by 6-OHDA challenge by DCFH-DA staining based flow cytometry", "assay_type": "functional, cell-based", "settings": "dose 2.5-10 µM"}, "PC-12 [19]": {"test_system": "PC-12", "experiment": "Activation of Keap1-Nrf2-ARE pathway in rat PC-12 assessed as upregulation of total Nrf2 protein expression at 10 uM measured after 3 hrs by Western blot analysis", "settings": "filed as activator"}, "PC-12 [20]": {"test_system": "PC-12", "experiment": "Activation of Keap1-Nrf2-ARE pathway in rat PC-12 assessed as upregulation of HO-1 protein expression at 10 uM measured after 6 to 24 hrs by Western blot analysis", "settings": "filed as activator, time 6-24 hrs"}, "PC-12 [21]": {"test_system": "PC-12", "experiment": "Activation of Keap1-Nrf2-ARE pathway in rat PC-12 assessed as upregulation of TrxR1 protein expression measured after 12 hrs by Western blot analysis", "settings": "filed as activator, dose 2.5-10 µM"}, "[22]": {"molecular_target": "T1, Nuclear factor erythroid 2-related factor 2 (Mus musculus)", "experiment": "Activation of Nrf2 in mouse BV-2 cells assessed as upregulation of Nrf2 protein expression after 24 hrs by Western blot analysis", "assay_type": "cell-based", "settings": "filed as activator, dose 2.5-10 µM"}, "PC-12 [23]": {"test_system": "PC-12", "experiment": "Protection against H2O2-induced apoptosis in rat PC-12 cells assessed as cell rescue pretreated for 12 hrs followed by H2O2 challenge by Hoechst 33342 staining based confocal microscopic analysis", "assay_type": "functional", "settings": "dose 2.5-10 µM"}, "PC-12 [24]": {"test_system": "PC-12", "experiment": "Protection against H2O2-induced mitochondrial dysfunction in rat PC-12 cells assessed as change in mitochondrial membrane potential at 2.5 uM pretreated with compound for 12 hrs followed by H2O2 challenge by JC-1 staining based flow cytometry (reference value: 73 %)", "assay_type": "functional"}},
  "note": "Calls of active or inactive are those of the source. No cut-off for these calls is given here.",
  "data": [
    {"smiles": "CN1C(N)=N[C@](C)(c2cc(-n3[se]c4cc(F)ccc4c3=O)ccc2F)CS1(=O)=O", "values": [
      {"measurement": "V0", "setting": "[1]", "value": 183, "unit": "µM/min"},
      {"measurement": "Activity", "setting": "PC-12 [2]", "value": "Active"},
      {"measurement": "Activity", "setting": "PC-12 [3]", "value": "inactive"},
      {"measurement": "Activity", "setting": "PC-12 [4]", "value": "Active"},
      {"measurement": "Activity", "setting": "[5]", "value": "Active"},
      {"measurement": "Activity", "setting": "[6]", "value": "Active"},
      {"measurement": "Activity", "setting": "PC-12 [7]", "value": 2.3, "unit": "%"},
      {"measurement": "Activity", "setting": "[8]", "value": "Dose-Dependent Effect"},
      {"measurement": "Activity", "setting": "PC-12 [9]", "value": "Active"},
      {"measurement": "Activity", "setting": "PC-12 [10]", "value": 0.6, "unit": "%"},
      {"measurement": "Activity", "setting": "PC-12 [11]", "value": "Active"},
      {"measurement": "Activity", "setting": "PC-12 [12]", "value": "Active"},
      {"measurement": "Activity", "setting": "PC-12 [13]", "value": "Active"},
      {"measurement": "IC50", "setting": "Beta-secretase 1", "value": 1060, "unit": "nM"},
      {"measurement": "Activity", "setting": "PC-12 [14]", "value": 2, "unit": "%"},
      {"measurement": "viability at 2.5 µM", "setting": "PC-12 [15]", "value": 83.6, "unit": "%"},
      {"measurement": "Papp at 16 h", "setting": "in vitro", "value": 16, "unit": "×10⁻⁶ cm/s"},
      {"measurement": "Activity", "setting": "[16]", "value": "Dose-Dependent Effect"},
      {"measurement": "Activity", "setting": "PC-12 [17]", "value": 6.7, "unit": "%"},
      {"measurement": "Activity", "setting": "PC-12 [18]", "value": "Dose-Dependent Effect"},
      {"measurement": "Activity", "setting": "PC-12 [19]", "value": "Active"},
      {"measurement": "Activity", "setting": "PC-12 [20]", "value": "Active"},
      {"measurement": "Activity", "setting": "PC-12 [21]", "value": "Active"},
      {"measurement": "Activity", "setting": "[22]", "value": "Dose-Dependent Effect"},
      {"measurement": "Activity", "setting": "PC-12 [23]", "value": "Dose-Dependent Effect"},
      {"measurement": "Activity", "setting": "PC-12 [24]", "value": 75.1, "unit": "%"}
    ]}
  ]
}
